Experimental data reported in patent publication US11324726B2, “Small molecular Stemazole for promoting stem cell clonal formation and applications thereof” (BEIJING NORMAL UNIVERSITY, priority 2016, dated 2022).

Tests used:
[1] = tested on: Human embryonic stem cell line H9 cells; assay: Apoptosis in single-cell culture, Annexin V/PI flow cytometry (Example 2); format: cell-based; settings: day 2 of inoculation; Stemazole 100 μM, Y27632 10 μM; DMSO group 54.1%
Description: Human embryonic stem cell line H9 cells were digested into single cells, divided into 3 groups as follows, and then inoculated at a low density on low-density MEF feeder layer cells in 6-well plates:
Experiment group (ST group): complete medium+Stemazole dissolved in DMSO at a concentration in the final culture medium of 100 μM;
Negative control group (DMSO group): complete medium+DMSO at an amount corresponding to the experiment group;
Positive control group (Y27632 group): complete medium+Y27632 dissolved in DMSO at a concentration in the final culture medium of 10 μM.
The cell ratio of each well of the three groups was 10 H9 cells/1 MEF cell.
Apoptosis was detected by flow cytometry using the specific apoptosis assay kit Annexin V/PI on day 2 of inoculation.

[2] = tested on: human hippocampal neurosphere stem cells; assay: Cell viability assay (ATP) of neurosphere stem cells (Example 6); format: cell-based; settings: series concentrations, 4 days; maximum increase versus DMSO control
Description: 1) On a superclean bench and under sterile conditions, human embryo hippocampus was taken out;
2) After envelope and blood vessels were removed under a dissecting microscope, tissue obtained was rinsed with pre-cooled PBS at 4° C. 3-5 times, leaving a very small amount of PBS;
3) The tissue was cut into pieces using ophthalmic scissors, and about 5 ml of culture medium was added to suspend the tissue pieces, and then the obtained cell suspension was gently pipetted to achieve single cell state with a pipette tip;
4) The cell suspension was filtered through a 40 μm pore size cell sieve;
5) Cell density was regulated to 1×10^6/ml, and then the cells were inoculated into a […] glass culture flask;
6) The cells in the flask were cultured in a 37° C., 5% CO2 cell culture incubator.
The human hippocampal neurosphere stem cells were mechanically pipetted into small clones, regulated into a suitable density, and inoculated into a 96-well, black-wall plate at about 50 neurospheres/110 μL cell suspension/well. […] Without changing the medium, ATP was added at 20 μL/well after the compound acted for 4 days or other time, and the viability of cells was detected.

H9 cells [3] = assay: Expression of stem cell markers after total nutrient removal culture, quantitative PCR and immunofluorescence (Example 5 I); format: cell-based, human; settings: 15 hours total nutrient removal culture; 100 μM
Description: Following the experimental method in Example 3, H9 cells were divided into experiment group (ST group) and control group (DMSO group) and cultured. After 15 hours of total nutrient removal culture, the expression of each of human embryonic stem cells' important markers OCT-4, Sox2, FDF4, KLF4, REX1, and Nanog was detected by quantitative PCR.
Ct (Cycle threshold) of each sample was measured by calculating 2^−^ΔΔ^Ct, to compare differential expression of specific gene between different samples. In order to reduce systematic error and sampling error, triplicate wells in parallel were set for each sample. The average value of the triplicate wells was taken as the Ct of the sample, and then 2^−^ΔΔ^Ct was calculated according to the formulas below. […]
In addition, still following the experimental method in Example 3, 1H9 cells were divided into experiment group (ST group), control group (DMSO group) and normal culture group and cultured. After total nutrient removal culture for 15 hours, the expression of each of human embryonic stem cells' important markers OCT-4 and E-Cadherin was detected by immunofluorescence staining.

H9 cells [4] = assay: Ki67 proliferation marker immunofluorescence after total nutrient removal culture (Example 5 II); format: cell-based, human; settings: 15 hours total nutrient removal culture; 100 μM
Description: Following the experimental method in Example 3, H9 cells were divided into experiment group (ST group), control group (DMSO group) and normal culture group and cultured. After total nutrient removal culture for 15 hours, immunofluorescence staining of the H9 cells was conducted for Ki67 (a proliferation marker).

[5] = tested on: human embryonic stem cell strain H9 cells; assay: Single cell clone formation in single-cell culture, alkaline phosphatase and OCT-4 staining (Example 1); format: cell-based; settings: 100 μM; for number of clones of alkaline phosphatase positive cells: H9 single cells on MEF feeder
Description: Alkaline Phosphatase Staining—
1) Rinsing cells with PBS, 3 times;
2) Fixing the cell with 4% paraformaldehyde for 10 minutes;
3) Washing with PBS, 3 times;
4) Preparing alkaline phosphatase staining agent:solution A:solution B:solution C=10 μl:10 μl:1 ml;
5) Adding the alkaline phosphatase staining agent to cover the cells, and staining for 20 minutes at room temperature in dark;
6) Aspirating off the staining agent, rinsing with PBS 3 times, storing the cells in PBS, and observing staining under a microscope.
Immunofluorescence Staining—
After being digested into single cells, human embryonic stem cell strain H9 cells were divided into two groups as follows, and inoculated on low density MEF feeder layer cells in 96-well plates:
(§1) Experiment group (ST group): complete medium+Stemazole dissolved in DMSO at a final concentration in the culture medium of 100 μM;
Control group (DMSO group): complete medium+DMSO with an amount corresponding to the experiment group.
The cell ratio of each well in the two groups was H9 cell/100 MEF cells, and the medium was supplemented once every 4 days.
Alkaline phosphatase staining was performed on day 4 and day 8. The results are shown in FIG. 1A: the number and sizes of the clones formed by the H9 cells in the DMSO group were less and smaller, while the number and sizes of the clones formed in ST group were higher and larger. […] The number of clones of alkaline phosphatase positive cells in the DMSO group averaged about 12 on day 8, and the number of clones of the alkaline phosphatase positive cells in the ST group averaged about 23, and the difference between the number of the clones in the two groups was significant. As to the size, the diameter of the alkaline phosphatase positive cells in the DMSO group on day 4 averaged about 50 microns, and the diameter of the alkaline phosphatase positive cells in the ST group averaged about 100 microns. There was no significant difference between the sizes of the clones in the two groups. The diameter of the alkaline phosphatase positive cells in the DMSO group on day 8 averaged about 70 microns, and the diameter of the alkaline phosphatase positive cells in the ST group averaged about 200 microns. There was a significant difference between the sizes of the clones in the two groups.
OCT-4 immunofluorescence staining was performed on day 1 and day 8.

[6] = tested on: Human embryonic stem cell line H9 cells; assay: Apoptosis during total nutrient removal culture, Annexin V/PI flow cytometry (Example 3); format: cell-based; settings: total nutrient removal for 15 hours; 100 μM; DMSO group about 43%, normal culture about 0.4%
Description: After passaged, human embryonic stem cell line H9 cells were divided into the following two groups and inoculated in 6-well plates:
Experiment group (ST group): total nutrient removal culture medium (complete medium with removal of serum and growth factor)+Stemazole dissolved in DMSO at a final concentration in the culture medium of 100 μM;
Control group (DMSO group): total nutrient removal culture medium+DMSO with an amount corresponding to the experiment group;
(§2) Normal culture group: complete medium.
Apoptosis was detected by flow cytometry using the specific apoptosis assay kit Annexin V/PI.

H9 cells [7] = assay: Induced differentiation into endoderm, mesoderm and ectoderm cells, marker expression (Example 5 IV); format: cell-based, human; settings: nutrient starving 15 hours, then 4 days differentiation medium; 100 μM
Text: Following the experimental method in Example 3, H9 cells were divided into experiment group (ST group), control group (DMSO group) and normal culture group and cultured.
The H9 cells were digested by Collagenase IV, washed with DMEM (high glucose) 3 times, and gently blown into small cell clusters, then were inoculated into 100 mm petri dishes with the culture medium changed into differentiation culture medium (DMEM/F12, 20% FBS, 1× non-essential amino acid, 1×sodium pyruvate, 1×β-mercaptoethanol, double antibiotics, and 2 mM glutamine). The medium was changed every 2 days, and the dishes were observed on each day. After 4 days, RNA was extracted and the differentiation ability of the H9 cells to endoderm, mesoderm and ectoderm cells was detected.

H9 cells [8] = assay: Embryoid body formation in total nutrient removal culture (Example 5 III); format: cell-based, human; settings: measured at the 15th hour, 100 μM, compared to DMSO group
Description: Following the experimental method in Example 3, H9 cells were divided into experiment group (ST group), control group (DMSO group) and normal culture group and cultured. The formation of EBs was observed under a microscope at the 15th hour, and on day 2 and day 4 of total nutrient removal culture respectively, and the diameter and number of EBs were measured at the 15th hours.

[9] = tested on: Human embryonic stem cell strain H1-9 cells; assay: Number of cells as a function of culture time in single-cell culture (Example 4); format: cell-based; settings: 100 μM; complete medium; single-cell culture on MEF feeder
Description: Human embryonic stem cell strain H1-9 cells were digested into single cells, then divided into following three groups and inoculated on low-density MEF feeder layer cells in 6-well plates:
as §1
Control group (DMSO group): complete medium+DMSO with the amount corresponding to the experiment group;
as §2
The cells in each well of the three groups were maintained well grown on the MEF feeder layer cells, and the medium was supplemented once every 4 days.

C[C@@H](N)[C@H]1CC[C@H](C(=O)Nc2ccncc2)CC1 [Y27632, 4-[(1R)-1-aminoethyl]-N-(pyridine-4-yl)cyclohexane-1-carboxamide, reference compound]
Annexin V positive apoptotic cells [1]: 20.1%

NNC(=S)Nc1ccc(-c2nnc(S)o2)cc1Br [Br-Stemazole, 4-(2-br-4-(5-mercapto-1,3,4-oxadiazole-2-yl)phenyl)thiosemicarbazide]
cell viability increase over the control group [2]: up to 2.1 times

NNC(=S)Nc1ccc(-c2nnc(S)o2)cc1 [Stemazole, 4-(4-(5-mercapto-1,3,4-oxadiazole-2-yl)phenyl)thiosemicarbazide]
expression of markers OCT-4, Sox2, FDF4, KLF4, REX1, Nanog by quantitative PCR (H9 cells [3]): maintained the stem cell characteristics | expression of markers OCT-4 and E-Cadherin by immunofluorescence staining (H9 cells [3]): maintained the stem cell characteristics | expression of proliferation marker Ki67 (H9 cells [4]): maintained the proliferation ability | OCT-4 immunofluorescence staining, single cell growth into monoclonal cells ([5]; day 1 and day 8): single cells had grown into monoclonal cells | diameter of the alkaline phosphatase positive cells (clone size) ([5]; day 4, DMSO group about 50): about 100 microns | number of clones of alkaline phosphatase positive cells ([5]; day 4, DMSO group about 8): about 18 | diameter of the alkaline phosphatase positive cells (clone size) ([5]; day 8, DMSO group about 70): about 200 microns | number of clones of alkaline phosphatase positive cells ([5]; day 8, DMSO group about 12): about 23 | cell viability increase over the control group [2]: up to 2.7 times | apoptosis rate [6]: about 8% | expression of ectoderm marker GFAP (H9 cells [7]): comparable to that of the normal control group cells | expression of ectoderm marker Pax6 (H9 cells [7]): higher than that of normal control group cells | expression of mesoderm marker MSX1 (H9 cells [7]): higher than that of normal control group cells | formation of EBs, diameter and number (H9 cells [8]): more EBs with larger diameter | number of cells as a function of time [9]: did not increase | Annexin V positive apoptotic cells [1]: 25.2%
